pIC50: −log10 of the molar value. Some results are limits rather than exact numbers.

T1 sequence (Q93009 208-1102): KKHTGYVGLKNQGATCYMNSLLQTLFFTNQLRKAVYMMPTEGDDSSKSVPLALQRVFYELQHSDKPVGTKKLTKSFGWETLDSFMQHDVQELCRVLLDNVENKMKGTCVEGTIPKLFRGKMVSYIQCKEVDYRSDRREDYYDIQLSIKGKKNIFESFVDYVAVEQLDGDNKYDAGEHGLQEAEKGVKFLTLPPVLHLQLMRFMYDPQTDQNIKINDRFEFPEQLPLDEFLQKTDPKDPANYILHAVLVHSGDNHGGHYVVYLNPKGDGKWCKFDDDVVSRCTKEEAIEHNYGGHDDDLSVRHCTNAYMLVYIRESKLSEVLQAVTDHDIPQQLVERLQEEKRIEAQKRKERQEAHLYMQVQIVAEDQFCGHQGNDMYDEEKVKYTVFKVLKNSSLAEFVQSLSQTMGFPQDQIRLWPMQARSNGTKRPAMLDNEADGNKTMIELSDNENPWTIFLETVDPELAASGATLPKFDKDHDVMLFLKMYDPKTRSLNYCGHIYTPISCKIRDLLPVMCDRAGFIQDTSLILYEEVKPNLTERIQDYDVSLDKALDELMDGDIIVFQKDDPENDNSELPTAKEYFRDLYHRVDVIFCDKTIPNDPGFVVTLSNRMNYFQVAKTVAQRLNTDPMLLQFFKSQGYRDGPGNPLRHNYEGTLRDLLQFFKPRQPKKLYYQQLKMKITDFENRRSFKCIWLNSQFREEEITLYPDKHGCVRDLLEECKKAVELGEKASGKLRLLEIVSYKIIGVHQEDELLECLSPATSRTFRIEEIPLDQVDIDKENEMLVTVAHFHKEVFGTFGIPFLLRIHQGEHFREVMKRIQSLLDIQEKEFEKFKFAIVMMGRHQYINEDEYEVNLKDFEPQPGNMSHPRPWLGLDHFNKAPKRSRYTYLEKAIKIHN

One experiment concerns the target T1, USP7 (Homo sapiens, UniProt Q93009).
T1 construct: USP7, construct USP7 (208-1102) 6*His, Viva Biotech; 6xHis (C); purchased Viva Biotech
In words: USP7 Assay A (Ubitquin-Rhodamine 110 Assay). It is filed as biochemical. To be noted: USP7 activity in USP7 assay A and B (table does not say which assay per compound); read-out: USP7_IC50. The procedure, abridged:
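Ub-Rh110 cleavage in 20 mM Tris-HCl pH 8.0 with 1 mM GSH, 0.03% BGG, 0.01% Triton X-100; compound preincubated with enzyme 30 min before substrate.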
For the compound `CN1CCN(c2ccn(-c3ccc(-n4ncc5c(=O)n(CC6(O)CCN(C(=O)C7CC7)CC6)cnc54)cc3)n2)CC1` [Compound I-818], the pIC50 is greater than 6.70.

Regarding `O=C(C1CC1)N1CCC(O)(Cn2cnc3c(cnn3-c3ccc(-n4cc(N5CCOCC5)cn4)cc3)c2=O)CC1` [Compound I-819], the pIC50 was 6.00 to 6.70.

Turning to `O=C(c1ccc(F)cc1)N1CCC(O)(Cn2cnc3c(cnn3-c3ccc(-n4ncc5c4CCOC5)cc3)c2=O)CC1` [Compound I-820], the pIC50 is 6.00 to 6.70.

Take `O=C(C[C@H](C(F)F)n1cccn1)N1CCC(O)(Cn2cnc3c(cnn3-c3ccc(N4CCCCC4)cc3)c2=O)CC1` [Compound I-821]: the pIC50 is 5.00 to 6.00.

In the case of `O=C(C[C@@H](C(F)F)n1cccn1)N1CCC(O)(Cn2cnc3c(cnn3-c3ccc(N4CCCCC4)cc3)c2=O)CC1` [Compound I-822], the pIC50 was 6.00 to 6.70.

On to `CN1CCN(c2ccc(-n3ncc4c(=O)n(CC5(O)CCN(C(=O)CC(C(F)F)n6cccn6)CC5)cnc43)cc2)CC1` (stereo not drawn) [Compound I-825], for which the pIC50 was greater than 6.70.

On to `CN1CCN(c2ccc(-n3ncc4c(=O)n(CC5(O)CCN(C(=O)C[C@H](C(F)F)n6cccn6)CC5)cnc43)cc2)CC1` [Compound I-826], for which the pIC50 is greater than 6.70.

`CN1CCN(c2cccc(-n3ncc4c(=O)n(CC5(O)CCN(C(=O)C[C@H](C(F)F)n6cccn6)CC5)cnc43)c2)CC1` [Compound I-829]: the pIC50 was greater than 6.70.

Consider `CN1CCN(c2cccc(-n3ncc4c(=O)n(CC5(O)CCN(C(=O)C[C@@H](C(F)F)n6cccn6)CC5)cnc43)c2)CC1` [Compound I-830], for which the pIC50 is 6.00 to 6.70.

In the case of `C=CC(=O)N1CCC1C(=O)N1CCC(O)(Cn2cnc3c(cnn3-c3cccc(N4CCN(C)CC4)c3)c2=O)CC1` (stereo not drawn) [Compound I-831], the pIC50 was greater than 6.70.

Consider `C=CC(=O)N1CCC1C(=O)N1CCC(O)(Cn2cnc3c(cnn3-c3ccc(N4CCN(C)CC4)cc3)c2=O)CC1` (stereo not drawn) [Compound I-832], for which the pIC50 is greater than 6.70.

Turning to `C[C@]1(O)CCN(c2ccc(-n3ncc4c(=O)n(CC5(O)CCN(C(=O)C[C@H](C(F)F)n6cccn6)CC5)cnc43)cc2)C1` [Compound I-833], the pIC50 was greater than 6.70.

In the case of `C[C@@]1(O)CCN(c2ccc(-n3ncc4c(=O)n(CC5(O)CCN(C(=O)C[C@H](C(F)F)n6cccn6)CC5)cnc43)cc2)C1` [Compound I-834], the pIC50 is 5.00 to 6.00.

On to `C[C@]1(O)CCN(c2ccc(-n3ncc4c(=O)n(CC5(O)CCN(C(=O)C[C@@H](C(F)F)n6cccn6)CC5)cnc43)cc2)C1` [Compound I-835], for which the pIC50 was greater than 6.70.

Regarding `C[C@@]1(O)CCN(c2ccc(-n3ncc4c(=O)n(CC5(O)CCN(C(=O)C[C@@H](C(F)F)n6cccn6)CC5)cnc43)cc2)C1` [Compound I-836], the pIC50 is 5.00 to 6.00.

With `C[C@@H](CC(=O)N1CCC(O)(Cn2cnc3c(cnn3-c3ccc(N4CC[C@](C)(O)C4)cc3)c2=O)CC1)n1cccn1` [Compound I-837], the pIC50 was greater than 6.70.

Regarding `C[C@@H](CC(=O)N1CCC(O)(Cn2cnc3c(cnn3-c3ccc(N4CC[C@@](C)(O)C4)cc3)c2=O)CC1)n1cccn1` [Compound I-838], the pIC50 is 5.00 to 6.00.

Turning to `C[C@H](CC(=O)N1CCC(O)(Cn2cnc3c(cnn3-c3ccc(N4CC[C@](C)(O)C4)cc3)c2=O)CC1)n1cccn1` [Compound I-839], the pIC50 is greater than 6.70.

With `C[C@H](CC(=O)N1CCC(O)(Cn2cnc3c(cnn3-c3ccc(N4CC[C@@](C)(O)C4)cc3)c2=O)CC1)n1cccn1` [Compound I-840], the pIC50 is 5.00 to 6.00.

For `CNC1CCN(c2ccc(-c3ccc(-n4ncc5c(=O)n(CC6(O)CCN(C(=O)C7CC7)CC6)cnc54)cc3)cn2)C1` (stereo not drawn) [Compound I-845], the pIC50 is greater than 6.70.

With `Cc1ncc(C(=O)N2CCC(O)(Cn3cnc4c(cnn4-c4ccc(C5CCC5)cc4)c3=O)CC2)o1` [Compound I-846], the pIC50 is 6.00 to 6.70.

Take `O=C(c1cnc(C2CC2)o1)N1CCC(O)(Cn2cnc3c(cnn3-c3ccc(C4CCC4)cc3)c2=O)CC1` [Compound I-847]: the pIC50 was 6.00 to 6.70.

As to `O=C(c1cnc(C2CC2)o1)N1CCC(O)(Cn2cnc3c(ccn3-c3ccc(F)cc3)c2=O)CC1` [Compound I-849], the pIC50 is greater than 6.70.

As to `Cc1cc2c(=O)n(CC3(O)CCN(C(=O)c4cnc(C5CC5)o4)CC3)cnc2n1-c1ccc(F)cc1` [Compound I-850], the pIC50 was 6.00 to 6.70.

As for `O=C(C1CCC(Oc2ccccn2)CC1)N1CCC(O)(Cn2cnc3c(cnn3-c3ccc(CO)cc3)c2=O)CC1` (stereo not drawn) [Compound I-852], the pIC50 is greater than 6.70.

`O=C(C1CCC(Oc2ccccn2)CC1)N1CCC(O)(Cn2cnc3c(cnn3-c3ccc(CO)cc3)c2=O)CC1` (stereo not drawn) [Compound I-853]: the pIC50 was 6.00 to 6.70.

`O=C(C[C@H](C(F)F)n1cccn1)N1CCC(O)(Cn2cnc3c(cnn3-c3ccc(CN4CCC4)cc3)c2=O)CC1` [Compound I-855]: the pIC50 is greater than 6.70.

In the case of `O=C(C[C@H](n1cccn1)C(F)(F)F)N1CCC(O)(Cn2cnc3c(cnn3-c3ccc(F)cc3)c2=O)CC1` [Compound I-912], the pIC50 is 5.00 to 6.00.

On to `O=C(C[C@@H](n1cccn1)C(F)(F)F)N1CCC(O)(Cn2cnc3c(cnn3-c3ccc(F)cc3)c2=O)CC1` [Compound I-913], for which the pIC50 is 5.00 to 6.00.

As for `O=C(c1cnc(N2CCC(O)CC2)o1)N1CCC(O)(Cn2cnc3c(cnn3-c3ccc(F)cc3)c2=O)CC1` [Compound I-915], the pIC50 was 5.00 to 6.00.

As for `Cc1ccc(-n2ncc3c(=O)n(CC4(O)CCN(C(=O)C5CC(Oc6ccccn6)C5)CC4)cnc32)cc1` (stereo not drawn) [Compound I-917], the pIC50 is 5.00 to 6.00.

In the case of `O=C(C[C@@H](C(F)F)n1cc(F)cn1)N1CCC(O)(Cn2cnc3c(cnn3-c3ccc(F)cc3)c2=O)CC1` [Compound I-918], the pIC50 is less than 5.00.

Regarding `O=C(c1ccc(-n2cnnc2)cc1)N1CCC(O)(Cn2cnc3c(cnn3-c3ccc(Cl)cc3)c2=O)CC1` [Compound I-919], the pIC50 was 5.00 to 6.00.

With `CN1CCC(Oc2ccc(C(=O)N3CCC(O)(Cn4cnc5c(cnn5-c5ccc(Cl)cc5)c4=O)CC3)cn2)C1` (stereo not drawn) [Compound I-920], the pIC50 was 5.00 to 6.00.

On to `Cn1cc(C(=O)N2CCC(O)(Cn3cnc4c(cnn4-c4ccc(F)cc4)c3=O)CC2)c(Cn2cccn2)n1` [Compound I-921], for which the pIC50 was 5.00 to 6.00.

With `Cc1cc(OC2CCN(C(=O)N3CCC(O)(Cn4cnc5c(cnn5-c5ccc(F)cc5)c4=O)CC3)CC2)no1` [Compound I-922], the pIC50 is 5.00 to 6.00.

Consider `Cn1cc(OC2CCN(C(=O)N3CCC(O)(Cn4cnc5c(cnn5-c5ccc(F)cc5)c4=O)CC3)CC2)cn1` [Compound I-923], for which the pIC50 is 5.00 to 6.00.

As to `CC(=O)NC1CCC(C(=O)N2CCC(O)(Cn3cnc4c(cnn4-c4ccc(F)cc4)c3=O)CC2)CC1` (stereo not drawn) [Compound I-924], the pIC50 was 5.00 to 6.00.

For `O=C(C1CCC(OC2CCOCC2)CC1)N1CCC(O)(Cn2cnc3c(cnn3-c3ccc(F)cc3)c2=O)CC1` (stereo not drawn) [Compound I-925], the pIC50 was 5.00 to 6.00.

As for `O=C(C1CCC(OC2CCOCC2)CC1)N1CCC(O)(Cn2cnc3c(cnn3-c3ccc(F)cc3)c2=O)CC1` (stereo not drawn) [Compound I-926], the pIC50 is 6.00 to 6.70.

Still in this experiment, the particulars now being: USP7 assay A and B (table does not say which assay per compound); read-out: USP7_IC50.
For the compound `CN(C)CCN(C)c1cccc(-n2ncc3c(=O)n(CC4(O)CCN(C(=O)c5ccc(F)cc5)CC4)cnc32)c1` [Compound I-823], the pIC50 is 6.00 to 6.70.

As to `O=C(c1ccc(F)cc1)N1CCC(O)(Cn2cnc3c(cnn3-c3ccc(F)c(N4CCNCC4)c3)c2=O)CC1` [Compound I-824], the pIC50 is 6.00 to 6.70.

For the compound `O=C(C1CC1)N1CCC(O)(Cn2cnc3c(cnn3-c3ccc(-c4ccc(O[C@H]5CCNC5)cc4)cc3)c2=O)CC1` [Compound I-841], the pIC50 was 6.00 to 6.70.

As to `O=C(C1CC1)N1CCC(O)(Cn2cnc3c(cnn3-c3ccc(-c4ccc(O[C@@H]5CCNC5)cc4)cc3)c2=O)CC1` [Compound I-842], the pIC50 was 6.00 to 6.70.

Regarding `O=C(C1CC1)N1CCC(O)(Cn2cnc3c(cnn3-c3ccc(C4CCNCC4)cc3)c2=O)CC1` [Compound I-843, 5-((1-(cyclopropanecarbonyl)-4-hydroxypiperidin-4-yl)methyl)-1-(4-(piperidin-4-yl)phenyl)-1H-pyrazolo[3,4-d]pyrimidin-4(5H)-one], the pIC50 was 6.00 to 6.70.

In the case of `CN1CCN(c2ccc(-c3ccc(-n4ncc5c(=O)n(CC6(O)CCN(C(=O)C7CC7)CC6)cnc54)cc3)cc2)CC1` [Compound I-844], the pIC50 is greater than 6.70.

Take `O=C(c1ccc(OC(F)F)cc1)N1CCC(O)(Cn2cnc3c(cnn3-c3ccc(CO)cc3)c2=O)CC1` [Compound I-851]: the pIC50 was 6.00 to 6.70.

As for `CN(C)CCOc1cc(-n2ncc3c(=O)n(CC4(O)CCN(C(=O)C5CC5)CC4)cnc32)ccc1-c1ccccc1` [Compound I-856], the pIC50 is 6.00 to 6.70.

In the case of `Cn1ncc2c(=O)n(CC3(O)CCN(C(=O)C[C@@H](c4ccccc4)C(F)(F)F)CC3)cnc21` [Compound I-861], the pIC50 was less than 5.00.

Regarding `Cc1nnc(-c2ccc(C(=O)N3CCC(O)(Cn4cnc5c(cnn5-c5ccc(F)cc5)c4=O)CC3)cc2)o1` [Compound I-911], the pIC50 was 5.00 to 6.00.

Consider `C#CC(=O)NC1CC(C(=O)N2CCC(O)(Cn3cnc4c(cnn4-c4ccc(F)cc4)c3=O)CC2)C1` (stereo not drawn) [Compound I-950], for which the pIC50 is 5.00 to 6.00.

With `C#CC(=O)N[C@@H]1CC[C@@H]1C(=O)N1CCC(O)(Cn2cnc3c(cnn3-c3ccc(F)cc3)c2=O)CC1` [Compound I-952], the pIC50 was 6.00 to 6.70.

For `Nc1cccc(-n2ncc3c(=O)n(CC4(O)CCN(C(=O)C5CC5)CC4)cnc32)c1` [Compound I-964], the pIC50 is 5.00 to 6.00.

With `Nc1ccc(-n2ncc3c(=O)n(CC4(O)CCN(C(=O)C5CC5)CC4)cnc32)cc1` [Compound I-965], the pIC50 is 5.00 to 6.00.

Consider `CN(C)C(=O)N1CCC(O)(Cn2cnc3c(cnn3-c3ccc(N4CCNCC4)cc3)c2=O)CC1` [Compound I-967], for which the pIC50 was 5.00 to 6.00.

Regarding `CN1CCN(c2ccc(-n3ncc4c(=O)n(CC5(O)CCN(C(=O)c6ccccc6)CC5)cnc43)cc2F)CC1` [Compound I-970], the pIC50 is 5.00 to 6.00.

For the compound `CO[C@]1(C)CCN(c2cc(-n3ncc4c(=O)n(CC5(O)CCN(C(=O)C6CC6)CC5)cnc43)ccc2F)C1` [Compound I-972], the pIC50 was 5.00 to 6.00.

The values above are taken from US9902728B2, “Pyrrolo and pyrazolopyrimidines as ubiquitin-specific protease 7 inhibitors” (Forma Therapeutics, Inc., priority 2014, dated 2018).
